Assay results published in patent publication US8431596B2 (Cancer Research Technology Limited, priority 2007, dated 2013).
Several values for one entry are separate records, joined by “and”; a condition that tells them apart may be missing. Equal entries are not always repeated.

Target: T1, AXL (human catalytic domain) (Homo sapiens, UniProt P30530)
T1 construct: purchased Upstate Ltd. 14-512
T1 sequence (P30530 473-894): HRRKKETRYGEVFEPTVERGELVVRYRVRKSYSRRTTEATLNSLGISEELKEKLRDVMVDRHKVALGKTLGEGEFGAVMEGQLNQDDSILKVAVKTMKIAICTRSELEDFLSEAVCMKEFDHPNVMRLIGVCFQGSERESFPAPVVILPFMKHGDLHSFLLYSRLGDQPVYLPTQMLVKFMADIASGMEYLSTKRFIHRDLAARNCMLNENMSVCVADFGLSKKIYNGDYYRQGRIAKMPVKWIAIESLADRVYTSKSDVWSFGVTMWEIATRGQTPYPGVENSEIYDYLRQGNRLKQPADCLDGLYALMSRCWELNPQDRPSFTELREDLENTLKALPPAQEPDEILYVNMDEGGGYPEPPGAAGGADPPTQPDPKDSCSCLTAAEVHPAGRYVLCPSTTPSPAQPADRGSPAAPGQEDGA
Assay: AXL (human catalytic domain) Enzyme Activity Assay (IMAP fluorescence polarisation)
Format: biochemical
Experimental: Biological Methods AXL (human catalytic domain) Enzyme Activity Assay Reagents
Kinase Assay Reaction Buffer: This consisted of 20 mM HEPES pH 7.0, 10 mM MgCl2, 1 mM DTT, […], 0.01% Triton X100 (v/v), and 0.01% BSA (w/v). All buffer components were purchased from Sigma-Aldrich at reagent grade or higher.
Kinase: Recombinant AXL isoform 1 (aa473-894 corresponding to Genbank Accession Number NP 068713) at 2 mg/mL (20.8 μM) was purchased from Upstate Ltd. (Product code 14-512, lot #28164U). The enzyme was stored at −80° C. and a working stock was prepared to a concentration of 30 nM by diluting 20.8 μM stock 1:693 in cold (4° C.) 1× Reaction Buffer. Final enzyme concentration in the assay was 15 nM.
Substrate: Fluorescein labelled CSK-tide 5FAM-[…]-NH2 was obtained from Molecular Devices (Product code R7270) and used at a working concentration of 200 nM by diluting the 100 μM stock 1:500 in 1× Reaction Buffer in a mix with the enzyme. A negative control (lacking enzyme) was prepared at the same concentrations. Final substrate concentration in the assay was 100 nM.
ATP: Supplied by Sigma (product code A-7699). A 100 mM ATP stock was prepared in […] and used at a working concentration of 375 μM by diluting the 100 mM stock 1:266.6 in Reaction Buffer. Final ATP concentration in the assay was 150 μM; this concentration represents the KM.ATP for this enzyme calculated in this assay.
IMAP Reagents: IMAP screening express kit was obtained from Molecular Devices (product code R8127). The binding reagent was gently re-suspended before diluting by 1:1000 in buffer (Binding Buffer is supplied as a 5× stock and so was diluted with water prior to use—this assay used 40% buffer A and 60% buffer B) and then vortexed before addition to wells. The binding reagent was used at a final dilution of 1:1333.
1 μL samples of test compounds in 10% DMSO/water were added to “test” wells by dry-spotting using a Matrix Platemate Plus. 5 μL Kinase/Substrate in Reaction Buffer were added to columns 1-22 of a Corning black low binding 384 well #6754 (90 μL volume) microplate to give 12 nM and 100 nM reaction concentration respectively. 5 μL substrate in Reaction Buffer was added to columns 23 and 24 to give 100 nM reaction concentration. 4 μL ATP in Reaction Buffer was added to all wells to give 150 μM reaction concentration. The reaction mixture was then incubated at room temperature for 60 minutes. The incubation period was followed by the addition of 20 μL IMAP Binding Reagent in Binding Buffer to all wells. The IMAP reaction detection was further incubated at room temperature overnight. The FP on a Tecan Ultra Plate reader was recorded as a single read at Ex485 Em535.
Percentage inhibition was calculated based on activity of the test sample minus the average values in the blank wells relative to the average values measured in control wells minus the average values in the blank wells.
IC50 values were calculated from 10 point dose sigmoid ‘dose-response’ curves using XIfit software (IDBS Inc, USA). Data were fitted to a 4 parameter logistic model/sigmoidal dose response defined by the following equation:
[formula] where: • A=fit minimum (locked to 0); • B=fit maximum (locked to 100); • C=fit midpoint (pre-fit to 1); and • D=slope at linear portion of curve, hillslope (pre-fit to 0.1).
The value for C represents the IC50 of the test compound.

[1] = first data set, recombinant AXL isoform 1 aa473-894, 150 μM ATP
[2] = further data set (WW-001 through WW-169, XX-001 through XX-469, YY-001 through YY-016, ZZ-001 through ZZ-003), 150 μM ATP

| IC50 [1] | IC50 [2] [nM] | SMILES |
| --- | --- | --- |
| 1000 to 10000 nM | 1000 to 10000 | CNc1ccc(Nc2nc3cccc(-c4ccc(OC)cc4)n3n2)cc1 [XX-056] |
| – | 100 to 1000 | CCN(CC)CCOc1cc(Nc2nc3cccc(-c4ccc(OC)cc4)n3n2)ccc1C [XX-415] |
| – | 100 to 1000 | FC(F)(F)c1ccc(-c2cccc3nc(Nc4ccc(OCCN5CCCC5)cc4)nn23)cc1 [XX-218] |
| < 1000 nM | ≤ 100 | COc1ccc(-c2cccc3nc(Nc4ccc(OCCN(C)Cc5ccc(N)cc5)cc4)nn23)cc1 [XX-067] |
| – | 100 to 1000 | Clc1cccc(Cn2cc(-c3cccc4nc(Nc5ccc(OCCN6CCCC6)cc5)nn34)cn2)c1 [XX-352] |
| < 1000 nM | – | CNCCCOc1ccc(Nc2nc3cccc(-c4ccc(OC)cc4)n3n2)cc1 [XX-040] |
| < 1000 nM | 100 to 1000 | NC(=O)COc1ccc(Nc2nc3cccc(-c4ccc5c(c4)OCCO5)n3n2)cc1 [XX-073] |
| – | 100 to 1000 | c1cc(NCc2nc3c(s2)CCCC3)cc(-c2cccc3nc(Nc4ccc(OCCN5CCCC5)cc4)nn23)c1 [XX-447] |
| 1000 to 10000 nM | 1000 to 10000 | O=C(Nc1nc2cccc(-c3ccc(F)c(F)c3)n2n1)C1CC1 [WW-090] |
| 1000 to 10000 nM | 1000 to 10000 | O=C(Nc1nc2cccc(-c3ccc([N+](=O)[O-])cc3)n2n1)C1CC1 [WW-107] |
| – | 100 to 1000 | Cc1ccc(-c2cccc3nc(Nc4ccc(OCCN5CCCC5)cc4)nn23)cc1C [XX-279] |
| 1000 to 10000 nM | 1000 to 10000 | COc1ccc(-c2cccc3nc(Nc4cccc(N)c4)nn23)cc1 [XX-061, N-[5-(4-Methoxy-phenyl)-[1,2,4]triazolo[1,5-a]pyridin-2-yl]-benzene-1,3-diamine] |
| < 1000 nM | 100 to 1000 | CNCCOc1cccc(Nc2nc3cccc(-c4ccc5c(c4)OCO5)n3n2)c1 [XX-088] |
| – | ≤ 100 | c1cc(-c2ccc3c(c2)OCCO3)n2nc(Nc3ccnc(OCCN4CCCCC4)c3)nc2c1 [XX-101] |
| – | 100 to 1000 | COCc1ccc(-c2cccc3nc(Nc4ccc(OCCN5CCCC5)cc4)nn23)cc1 [XX-217] |
| – | 100 to 1000 | CCN(CC)CCOc1cc(Nc2nc3cccc(-c4cnn(Cc5ccccc5)c4)n3n2)ccn1 [XX-387] |
| – | ≤ 100 | NCCSc1ccc(Nc2nc3cccc(-c4ccc5c(c4)OCCO5)n3n2)cc1 [XX-108] |
| – | 100 to 1000 | O=S(=O)(Cc1cccc(Cl)c1)n1cc(-c2cccc3nc(Nc4ccc(OCCN5CCCC5)cc4)nn23)cn1 [XX-288] |
| – | 1000 to 10000 | c1cc(NCc2cncs2)cc(-c2cccc3nc(Nc4ccc(OCCN5CCCC5)cc4)nn23)c1 [XX-260] |
| 1000 to 10000 nM | 1000 to 10000 | Cc1cc(-c2cccc3nc(NC(=O)C4CC4)nn23)ccn1 [WW-087] |
| – | 1000 to 10000 | COc1ncc(-c2cccc3nc(Nc4ccc(OCCN5CCCC5)cc4)nn23)cn1 [XX-197] |
| – | ≤ 100 | CC[C@H](COc1ccc(Nc2nc3cccc(-c4ccc(OC)cc4)n3n2)cc1)N1CCCC1 [XX-414] |
| – | 100 to 1000 | c1cc(-c2ccc(-c3cn[nH]c3)cc2)n2nc(Nc3ccc(OCCN4CCCC4)cc3)nc2c1 [XX-187] |
| < 1000 nM | 1000 to 10000 | COc1ccc(-c2cccc3nc(Nc4ccc(OCCO)cc4)nn23)cc1 [XX-011, 2-{4-[5-(4-methoxy-phenyl)-[1,2,4]triazolo[1,5-a]pyridin-2-ylamino]-phenoxy}-ethanol] |
| – | 100 to 1000 | CN(C)c1cccc(-c2cccc3nc(Nc4ccc(OCCN5CCCC5)cc4)nn23)c1 [XX-236] |
| – | 100 to 1000 | COc1cccc(CS(=O)(=O)n2cc(-c3cccc4nc(Nc5ccc(OCCN6CCCC6)cc5)nn34)cn2)c1 [XX-289] |

| IC50 [1] | IC50 [2] [nM] | SMILES |
| --- | --- | --- |
| – | 100 to 1000 | N#CCCn1cc(-c2cccc3nc(Nc4ccc(OCCN5CCCC5)cc4)nn23)cn1 [XX-351] |
| – | ≤ 100 | O=C(NCCN1CCCC1)c1cccc(Nc2nc3cccc(-c4ccc5c(c4)OCCO5)n3n2)c1 [XX-113] |
| 1000 to 10000 nM | 1000 to 10000 | COc1cc(-c2cccc3nc(NC(=O)C4CC4)nn23)ccc1O [WW-093] |
| – | 1000 to 10000 | Cn1nc(COc2cccc(-c3cccc4nc(Nc5ccc(OCCN6CCCC6)cc5)nn34)c2)cc1-c1ccccc1 [XX-459] |
| – | 100 to 1000 | c1cc(-c2ccc3c(c2)OCCO3)n2nc(Nc3cnc(OCCN4CCCC4)nc3)nc2c1 [XX-097] |
| – | 100 to 1000 | c1cc(-c2ccc(OCC3CCCO3)cc2)n2nc(Nc3ccc(OCCN4CCCC4)cc3)nc2c1 (stereo not drawn) [XX-146] |
| – | 100 to 1000 | O=C(Nc1cccc(-c2cccc3nc(Nc4ccc(OCCN5CCCC5)cc4)nn23)c1)c1ccc2nonc2c1 [XX-182] |
| – | 1000 to 10000 | CC(C)Oc1cccc(-c2cccc3nc(Nc4ccc(OCCN5CCCC5)cc4)nn23)c1 [XX-331] |
| – | 100 to 1000 | CCN(CC)CCOc1cccc(Nc2nc3cccc(-c4ccc5c(c4)OCCN5C)n3n2)c1 [XX-096] |
| – | 1000 to 10000 | Clc1ccccc1COc1cccc(-c2cccc3nc(Nc4ccc(OCCN5CCCC5)cc4)nn23)c1 [XX-339] |
| – | 100 to 1000 | CN(C)CCCc1cccc(Nc2nc3cccc(-c4ccc5c(c4)OCCO5)n3n2)c1 [XX-115, [5-(2,3-Dihydro-benzo[1,4]dioxin-6-yl)-[1,2,4]triazolo[1,5-a]pyridin-2-yl]-[3-(3-dimethylamino-propyl)-phenyl]-amine] |
| < 1000 nM | ≤ 100 | NCc1cc2cc(Nc3nc4cccc(-c5ccc6c(c5)OCCO6)n4n3)ccc2o1 [XX-068] |
| 1000 to 10000 nM | 1000 to 10000 | Cc1cc(-c2cccc3nc(NC(=O)C4CC4)nn23)cc(C)c1O [WW-008, Cyclopropanecarboxylic acid [5-(4-hydroxy-3,5-dimethyl-phenyl)-[1,2,4]triazolo[1,5-a]pyridin-2-yl]-amide] |
| – | 100 to 1000 | CCN(CC)CCOc1cc(Nc2nc3cccc(-c4ccc(OC)cc4)n3n2)cc(F)c1F [XX-418] |
| – | 100 to 1000 | C[C@H](CN(C)C)Oc1ccc(Nc2nc3cccc(-c4ccc5c(c4)OCCO5)n3n2)cc1 [XX-155] |
| – | 100 to 1000 | CN(C)CC(C)(C)Oc1ccc(Nc2nc3cccc(-c4ccc5c(c4)OCCO5)n3n2)cc1 [XX-126] |
| 1000 to 10000 nM | 1000 to 10000 | Cc1c(-c2cccc3nc(NC(=O)C4CC4)nn23)cnn1-c1ccccc1 [WW-148] |
| < 1000 nM | ≤ 100 | c1cc(-c2ccc3occc3c2)n2nc(Nc3ccc(OCCN4CCCC4)cc3)nc2c1 [XX-020] |
| – | ≤ 100 | CC(C(=O)Nc1cccc(Nc2nc3cccc(-c4ccc5c(c4)OCCO5)n3n2)c1)N1CCCC1 (stereo not drawn) [XX-136] |
| – | 100 to 1000 | CC(C)NC(=O)NCc1cccc(-c2cccc3nc(Nc4ccc(OCCN5CCCC5)cc4)nn23)c1 [XX-373] |
| – | 100 to 1000 | CC(CNc1cccc(Nc2nc3cccc(-c4ccc5c(c4)OCCO5)n3n2)c1)N1CCCC1 (stereo not drawn) [XX-140] |
| 1000 to 10000 nM | 1000 to 10000 | CC(C)Oc1ccc(-c2cccc3nc(NC(=O)C4CC4)nn23)cc1 [WW-150] |
| < 1000 nM and 664 nM | 100 to 1000 | Cc1cc(-c2cccc3nc(NC(=O)C4CC4)nn23)ccc1N(C)C [WW-103] |
| 1000 to 10000 nM | 1000 to 10000 | Cc1csc(-c2cccc3nc(NC(=O)C4CC4)nn23)c1 [WW-058] |
| 1000 to 10000 nM | 1000 to 10000 | O=C(Nc1nc2cccc(-c3cncc(F)c3)n2n1)C1CC1 [WW-052] |
